{
  "source": "patent US20140023653A1",
  "about": "“BOLDINE DERIVATIVES FOR PROMOTING BONE GROWTH” (OSTEOGENEX, INC., priority 2012, published 2014)",
  "target": "T1, Sclerostin (Homo sapiens, UniProt Q9BQB4)",
  "T1 construct": "host or cells: human embryonic cells (reporter cells)",
  "T1 sequence (Q9BQB4 24-213)": "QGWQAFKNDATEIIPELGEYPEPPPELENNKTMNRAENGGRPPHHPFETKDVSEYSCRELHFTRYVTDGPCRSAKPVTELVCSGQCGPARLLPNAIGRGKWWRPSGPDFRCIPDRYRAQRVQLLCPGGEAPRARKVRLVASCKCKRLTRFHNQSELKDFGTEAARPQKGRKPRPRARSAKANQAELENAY",
  "assay": "Luciferase Wnt pathway activity assay: inhibition of sclerostin by restoration of Wnt signaling in human cells",
  "format": "cell-based",
  "protocol": "The Y axis represents Relative Light Units (RLU) which represents Wnt pathway signaling. Addition of Wnt (W) activates the Wnt pathway, while addition of Sclerostin (S) inhibits the Wnt pathway. […] Compound concentrations are indicated in μM.\nBriefly, cells (e.g., human cells) are treated with a predetermined dose of a candidate compound for a complete dosing schedule.\nConcentrations are indicated along the X axis in micromolar values.",
  "data": [
    {"smiles": "COc1cc2c(cc1O)C[C@H]1c3c(cc(O)c(OC)c3-2)CCN1C", "note": "[Compound 1, (S)-1,10-dimethoxy-6-methyl-5,6,6a,7-tetrahydro-4H-dibenzo[de,g]quinoline-2,9-diol]", "values": [
      {"measurement": "IC50", "value": 5, "unit": "µM"}
    ]}
  ]
}
